Values joined by “and” are separate entries in the source; they are usually repeats but may differ in a detail not shown here. Equal entries are not always repeated.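 Five concentrations, 48 hours, 96-well plates. GI50 marks 50% less growth. TGI denotes the concentration required for complete inhibition of growth.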
Legend:
Assay in all cases: NCI tumour cell line growth inhibition, 48 h
ACHN renal = tested on: ACHN renal
BT-549 breast = tested on: BT-549 breast
CCRF-CEM leukemia = tested on: CCRF-CEM leukemia
COLO 205 colon = tested on: COLO 205 colon
HCT-15 colon = tested on: HCT-15 colon
IGROV1 ovarian = tested on: IGROV1 ovarian
K-562 leukemia = tested on: K-562 leukemia
NCI-H522 lung = tested on: NCI-H522 lung
SK-MEL-2 melanoma = tested on: SK-MEL-2 melanoma
SK-MEL-5 melanoma = tested on: SK-MEL-5 melanoma

Structure (SMILES) | GI50 (ACHN renal) [µM] | TGI (ACHN renal) | GI50 (BT-549 breast) [µM] | TGI (BT-549 breast) | GI50 (CCRF-CEM leukemia) [µM] | TGI (CCRF-CEM leukemia) [µM] | GI50 (COLO 205 colon) [µM] | TGI (COLO 205 colon) | GI50 (HCT-15 colon) [µM] | TGI (HCT-15 colon) [µM] | GI50 (IGROV1 ovarian) [µM] | TGI (IGROV1 ovarian) | GI50 (K-562 leukemia) [µM] | TGI (K-562 leukemia) [µM] | GI50 (NCI-H522 lung) [µM] | TGI (NCI-H522 lung) | GI50 (SK-MEL-2 melanoma) [µM] | TGI (SK-MEL-2 melanoma) | GI50 (SK-MEL-5 melanoma) [µM] | TGI (SK-MEL-5 melanoma)
O=C(CN1CCN(C(=O)c2ccco2)CC1)Nc1ccc(Cl)cc1C(=O)c1ccccc1Cl | 10.3 | 43.7 µM | 2.62 | 13.1 µM | 5.28 | > 100 | 7.32 | 23.7 µM | 5.14 | 39.7 | 4.23 | 17.6 µM | 0.691 | 10.5 | 4.16 | 27.4 µM | 3.14 | 17.5 µM | 5.34 | 18.6 µM
COc1ccc(/C=C\c2cc(OC)c(OC)c(OC)c2)c(NS(=O)(=O)c2ccc(F)cc2)c1O | 0.189 | 96.9 µM | 0.0619 | 16.8 µM | 0.0435 | > 100 | 1.93 | 7.94 µM | 0.0752 | > 100 | 0.212 | > 100 µM | 0.0353 | > 76 | 0.222 | 15 µM | 0.184 | > 100 µM | 0.102 | 0.515 µM
O=C(N/N=C/c1ccncc1)c1ccc(F)cc1 | > 40 | > 40 µM | > 40 | > 40 µM | > 40 | > 40 | > 40 | > 40 µM | > 40 | > 40 | > 40 | > 40 µM | > 40 | > 40 | > 40 | > 40 µM | > 40 | > 40 µM | > 40 | > 40 µM
Cc1cc(C)c2c(c1)N(C)c1ncnc(-n3cnc4cc(C)ccc43)c1CC2C (centres undefined) | 4.07 | 18.3 µM | 2.93 | 12 µM | 2.78 | 11.4 | 3.32 | 10.5 µM | 3.58 | 36.3 | 5.46 | > 100 µM | 1.5 | > 100 | 2.07 | 6.53 µM | 4.21 | 26.6 µM | 2.24 | 5.34 µM
C[C@]12CC[C@H]3[C@@H](CC[C@]4(O)C[C@@H](O[C@@H]5O[C@H](CO)[C@@H](O[C@@H]6OC[C@@H](O)[C@H](O)[C@H]6O)[C@H](O)[C@H]5O)CC[C@]34C=O)[C@@]1(O)CC[C@@H]2C1=CC(=O)OC1 | 0.306 | 1.88 µM | 1.06 | 5.2 µM | 0.78 | 5.24 | 1.98 | 7.24 µM | 1.6 | 5.12 | 1.84 | 17.6 µM | 1.57 | 10.2 | 0.237 | 1.51 µM | 1.49 | 4.44 µM | 1.22 | 2.88 µM
CC(=O)N[C@@H](Cc1ccc(OP(=O)(O)O)cc1)C(=O)N[C@H]1CCC(=O)N2CCC[C@@H](C(=O)NC3CCc4ccccc43)N2C1=O (some centres undefined) | > 25 | > 25 µM | > 25 | > 25 µM | > 25 | > 25 | > 25 | > 25 µM | > 25 | > 25 | > 25 | > 25 µM | > 25 | > 25 | > 25 | > 25 µM | > 25 | > 25 µM | > 25 | > 25 µM
CCOc1ccc2c(c1)C(=O)c1c-2n(CCCN=[N+]=[N-])c(=O)c2cc([N+](=O)[O-])ccc12 | 2.02 | 9.32 µM | 13.1 | > 100 µM | 0.442 | 2.79 | 54.1 | > 100 µM | 16.9 | > 100 | 0.195 | 16.1 µM | 17.2 | > 100 | 3.58 | 25.8 µM | 14.4 | 38.2 µM | 1.48 | 4.84 µM
O=C(/C=C/C=C/c1ccc2c(c1)OCO2)N/N=C\c1ccc(O)cc1O | 1.99 | 13.1 µM | 2.25 | 7.49 µM | 0.559 | 17.9 | 2.31 | 13.8 µM | 0.776 | 21.4 | 2.23 | 14.3 µM | 2.83 | > 100 | 2.9 | 15.3 µM | 5.51 | 27 µM | 1.63 | 3.87 µM
Cn1c(=O)c(Oc2ccc(F)cc2F)cc2cnc(NCC(C)(C)O)nc21 | > 25 | > 25 µM | > 25 | > 25 µM | > 25 | > 25 | > 25 | > 25 µM | > 25 | > 25 | > 25 | > 25 µM | > 25 | > 25 | > 25 | > 25 µM | > 25 | > 25 µM | > 25 | > 25 µM
CCC(C)C1NC(=O)C(NC(=O)C(CC(C)C)N(C)C(=O)[C@@H]2CC(O)CN2C(=O)[C@H](C)O)C(C)OC(=O)[C@H](Cc2ccc(OC)cc2)N(C)C(=O)[C@@H]2CCCN2C(=O)[C@H](CC(C)C)NC(=O)C(C)C(=O)[C@H](C(C)C)OC(=O)CC1O (some centres undefined) | 0.131 | 8.74 µM and 5.22 µM | 0.0259 | 0.855 µM and 0.233 µM | 0.0276 | 0.28 | 0.0163 | 0.273 µM and 1.69 µM | 0.315 | 12.7 | 0.0191 | 1.4 µM and 0.312 µM | 0.025 | 0.352 | 0.0208 | 0.902 µM and 0.234 µM | < 0.01 | 0.342 µM and 0.206 µM | < 0.01 | 0.445 µM and 0.0574 µM
CO/C(=C1/NC(=O)C(Cc2ccc(O)c(Br)c2)N(C)C(=O)C(C)NC(=O)CCC/C=C(\C)CCC(C)OC1=O)c1ccccc1 (centres undefined) | 0.0192 | 0.0623 µM | 0.0368 | 0.105 µM | 0.0185 | 0.0805 | 0.0233 | > 100 µM | 0.0632 | 13.4 | 0.0199 | 0.0465 µM | 0.335 | > 100 | 0.0281 | 0.438 µM | – | 0.0469 µM | 0.0327 | 0.387 µM
O=C(CCN1CCCN(c2cnc3ccccc3n2)CC1)c1csc2ccccc12 | 17.9 | 31.8 µM | 18.4 | 32.3 µM | 12.5 | 63.1 | 17.6 | 33.4 µM | 18.9 | 34.8 | 16.2 | 31.2 µM | 20 | 48.6 | 17.3 | 31.7 µM | 27.3 | 76.5 µM | 16.2 | 30 µM
O=C(O)c1ccc(/C=N/N=C2c3ccccc3-c3ccccc32)cc1 | – | > 100 µM | – | > 100 µM | – | > 100 | – | > 100 µM | – | > 100 | – | > 100 µM | – | > 100 | – | > 100 µM | – | 75.1 µM | – | > 100 µM
COc1cc(C2CC(c3cccc(Nc4ccnc5cc(Cl)ccc45)c3)=NN2c2ccccc2)cc(OC)c1OC (centres undefined) | 3.52 | > 100 µM | 13.9 | > 100 µM | 6.4 | > 100 | 15.7 | 46.3 µM | 2.91 | > 100 | 29.2 | > 100 µM | 3.75 | > 100 | 3.6 | > 100 µM | 8.78 | 75.6 µM | 4.56 | 23.8 µM
COc1c(B(O)O)cccc1-c1nc2c(F)cc3n[nH]c(C)c3c2c2c1CCCC2 | 0.534 | > 50 µM | 0.238 | 3.14 µM | 0.373 | > 50 | 1.51 | 5.26 µM | 1.49 | > 50 | 1.12 | > 50 µM | 1.68 | > 50 | 1.11 | 8.81 µM | 1.45 | 3.6 µM | 0.932 | 2.96 µM
CN(C)C1CN(C(=O)c2cc(-c3ccc4ncnc(N5CCc6cc(F)c(Cl)cc65)c4c3)cnc2N)C1 | 0.443 | > 100 µM | 0.436 | 4.02 µM | 0.583 | > 100 | 1.97 | > 100 µM | 0.495 | > 100 | 0.223 | 1.23 µM | 0.86 | > 100 | 1.77 | > 100 µM | 1.09 | 3.77 µM | 1.54 | 2.92 µM

Reference: PubChem BioAssay (NCI)
